One molecule from publication PMC11173382, “In Vitro Investigations into the Potential Drug Interactions of Pseudoginsenoside DQ Mediated by Cytochrome P450 and Human Drug Transporters” (Molecules, 2024) can be followed below.

The target of this data set is T1, hOATP1B3 (Homo sapiens, UniProt Q9NPD5).
T1 sequence (Q9NPD5 1-702): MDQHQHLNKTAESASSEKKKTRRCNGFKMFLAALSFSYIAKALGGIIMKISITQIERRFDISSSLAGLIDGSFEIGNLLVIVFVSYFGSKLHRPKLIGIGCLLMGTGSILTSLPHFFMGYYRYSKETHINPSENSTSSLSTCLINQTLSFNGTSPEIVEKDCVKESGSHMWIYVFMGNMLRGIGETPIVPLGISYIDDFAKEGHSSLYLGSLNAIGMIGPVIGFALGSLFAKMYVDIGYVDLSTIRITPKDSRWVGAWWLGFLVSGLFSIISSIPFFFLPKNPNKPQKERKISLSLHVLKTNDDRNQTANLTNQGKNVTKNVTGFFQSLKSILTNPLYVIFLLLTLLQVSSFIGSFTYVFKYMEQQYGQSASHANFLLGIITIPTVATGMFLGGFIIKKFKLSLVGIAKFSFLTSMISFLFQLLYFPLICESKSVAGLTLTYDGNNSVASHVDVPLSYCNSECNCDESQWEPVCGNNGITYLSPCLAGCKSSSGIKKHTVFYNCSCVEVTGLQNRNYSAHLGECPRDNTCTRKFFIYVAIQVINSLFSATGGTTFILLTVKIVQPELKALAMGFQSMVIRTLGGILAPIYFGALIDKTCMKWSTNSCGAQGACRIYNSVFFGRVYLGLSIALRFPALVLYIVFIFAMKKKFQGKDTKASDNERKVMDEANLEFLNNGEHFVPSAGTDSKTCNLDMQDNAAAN
Nature of the data set: Substrates uptake assay, HEK293A-OATP1B3 cells (3H-EG). It is filed as in vitro ADME. From the text: Drug transporters mediate the cellular uptake and efflux of their substrates. Therefore, cell lines overexpressing a drug transporter can be utilized to investigate inhibitors of the transporter by assessing changes in substrate uptake. For each drug transporter, we selected a well-characterized inhibitor as the positive control. Radiolabeled substrates were used to indicate the decrease in transport efficiency when the drug transporters were inhibited by PDQ or the control inhibitors.
The concentrations of the control drugs and the substrates were stated in the assay details. Working solutions of the control inhibitors, the radiolabeled substrates, and each dose of PDQ were prepared at 200 times (200×) more concentrated solutions with DMSO for further dilution.
Transporter-overexpressed cell lines. Human organic anion transporter-overexpressed cell lines MDCKII-OAT1 and S2-OAT3, human organic anion transport polypeptide-overexpressed cell lines HEK293A-OATP1B1 and HEK293A-OATP1B3, human organic cation transporter 2-overexpressed cell line S2-OCT2, and human multi-drug resistance protein MDR1 (or P-gp)-overexpressed cell line MDCKII-MDR1 were gifts from Japan Fuji Biomedical Co., Ltd. (Fuji, Shizuoka Prefecture, Japan). Breast cancer resistance protein-overexpressed vesicles (sf9-BCRP vesicle) were purchased from GenoMembrane Co., Ltd. (Yokohama, Kanagawa, Japan).
Substrates uptake assay. In this assay, we studied the inhibition of PDQ against transporters OAT1, OAT3, OCT2, OATP1B1 and OATP1B3 with MDCKII-OAT1, S2-OAT3, S2-OCT2, HEK293A-OATP1B1and HEK293A-OATP1B3 cells, respectively. The radiolabeled substrates for OAT1, OAT3, OATP1B1, OATP1B3 and OCT2 were […], respectively (Table 5). Probenecid ([…]) was the positive control inhibitor of OAT1 and OAT3, while rifampicin ([…]) served as the control drug of OATP1B1 and OATP1B3. For OCT2, we used […] cimetidine to compare with the inhibitory effect of PDQ. Two times (2×) more concentrated working solutions of the drugs and the substrate were prepared with Dulbecco’s phosphate-buffered saline (DPBS, Gibco, Grand Island, NY, USA.). Then, an equal volume of 2× drug solution and 2× radiolabeled substrate solution were mixed as the working mix. All reagents were pre-warmed to 37 °C.
The cells were digested with 0.05% trypsin/EDTA. The density of the single-cell suspension was adjusted to 2.0 × 10^5 cells/mL for S2 cells and to 1.5 × 10^5 cells/mL for MDCK II and HEK293A cells. The cell suspension was then added to the reservoirs of the 24-well plate for culture until full confluency. The medium in the wells was removed, and the wells were washed with DPBS. Then, the plate was incubated for 10 min with pre-warmed DPBS in the wells. After removing DPBS, […] of working mix was added to each well to initiate the substrate uptake process. The reaction time was 5 min for S2-OCT2 cells, while the other four types of cells were incubated with the reaction mix for 2 min. Cold DPBS was used to terminate the substrate transportation. To each well, […] NaOH ([…]) was added to lyse the cells. Then, […] cell lysate was transferred to the counting vials, and 3 mL scintillation cocktail (Aquasol-2, PerkinElmer, Waltham, MA, USA) was added. […] Each sample was replicated three times (N = 3).
In = [100 × (U − U0)/(Uc − U0)]%(3)
The results were expressed as mean ± standard deviation (SD) and analyzed with GraphPad Prism 8.0 software (CA, USA). The IC50 of PDQ was curve-fitted with the FORECAST function. Statistical significance was calculated using a two-tailed test, and a p value < 0.05 was considered as significant.

The IC50 is the concentration needed to halve the response being measured. Low readings indicate inhibition by little substance, high ones a need for much substance. `CC(C)(O)[C@@H]1CC[C@@](C)([C@H]2CC[C@]3(C)[C@@H]2[C@H](O)C[C@@H]2[C@@]4(C)CC[C@H](O)C(C)(C)[C@@H]4CC[C@]23C)O1` [PDQ, (20S,24S)-dammar-20,24-epoxy-3β, 12β, 25-triol]: where the note is “HEK293A-OATP1B3, 3H-EG 1 µM, 2 min”, the IC50 is more than 30 µM. Besides, the “DPM (3H-EG uptake by OATP1B3)” value is, setting by setting: (inhibitor 0.1 μM) 3332.7±245.2 DPM; (inhibitor 0.3 μM) 3200.3±323.1 DPM; (inhibitor 1 μM) 3093.3±182.0 DPM; (inhibitor 3 μM) 2980.7±186.5 DPM; (inhibitor 10 μM) 2985.0±250.2 DPM; (inhibitor 30 μM) 2649.0±200.2 DPM.
